Values joined by “and” are separate entries in the source; they are usually repeats but may differ in a detail not shown here. Equal entries are not always repeated. Where two headings read alike, the source gives them in different places.
Key:
[1] = target: P. falciparum translation (P. falciparum lysate); experiment: P. falciparum in vitro translation (PfIVT) assay, lysate-based, luciferase reporter; type: biochemical, Plasmodium falciparum; conditions: for IC50: 8-point, weighted mean ± SD of two technical replicates, read-out: IC50 value (μM) PfIVT; for PfIVT inhibition at 30 μM (%): single-point screen
Description: (§1) Our P. falciparum in vitro translation (PfIVT) assay is built upon previously established assays ([14], [17]) and is summarized in Fig. 1A. In this assay, successful reconstitution of Plasmodium protein translation is reported via synthesis of a luciferase reporter. For PfIVT, two independent untranslated regions (UTRs), previously shown to promote strong levels of translation ([17]), were introduced upstream and downstream of the luciferase. The 5′ UTR from P. falciparum histidine-rich protein 3 (PfHrp3) ([18]) was introduced upstream of the reporter gene, and the 3′ UTR from P. falciparum histidine-rich protein 2 (PfHrp2) gene ([19]) was introduced downstream. For the reporter construct to support our complementary human IVT assay (HsIVT), the 5′ UTR was replaced with an internal ribosome entry site (IRES) from encephalomyocarditis virus (EMCV) ([20]) and the 3′ UTR was replaced with a poly(A) tail ([21]). […] Finally, a 30-bp poly(A) tail, present within the vector and downstream of the luciferase gene, was inserted to enhance mRNA stability ([21]).
(§2) Translationally active P. falciparum or human embryonic kidney (HEK) 293F lysates were supplemented with accessory, helper, amino acid, and energy regeneration solutions (see Materials and Methods for details). In vitro translation reactions were initiated by the addition of purified mRNA to each reaction well. Using this basic assay format, a number of parameters were assessed and optimized, namely, assay temperature, time, mRNA concentration, and reaction volume (summarized in Fig. S2 in the supplemental material). In addition, we compared the luminescence signal of the CBG firefly luciferase with CBG99, derived from the click beetle […] ([18]).
3D7 parasites were synchronized following two rounds of treatment with D-sorbitol (5%), as previously described ([40]). The hematocrit was reduced from 5% (for standard culture) to 1.5 to 2% and cultures were transferred into HYPERflasks (Corning). Fresh medium was added once or twice daily. […] Harvested red blood cells (infected) were lysed by incubation in 0.1% (wt/vol) saponin on ice for 10 min with gentle agitation. Free parasites were harvested by centrifugation (2,800 × g, 10 min, 4°C) and washed 3 times in wash buffer (WB; 100 mM potassium acetate, 2.5 mM magnesium acetate, 45 mM HEPES [pH 7.4], 250 mM sucrose, 2 mM dithiothreitol, and 15 μM leupeptin) to remove lysed red blood cell debris. The resulting pellet was resuspended in 1 volume of WB supplemented with cOmplete EDTA-free protease inhibitor cocktail (Roche; 1 tablet/20 mL) and human RNase A inhibitor (Sigma; 5 U/mL). Parasite lysis was achieved by nitrogen cavitation using a prechilled 45-mL Parr cell disruption vessel (1,500 lb/in^2, 60 min, 4°C). To clarify the lysate, it was centrifuged (10,000 × g, 15 min, 4°C), and the supernatant was collected, transferred into fresh tubes, and centrifuged (30,000 × g, 15 min, 4°C). As a quality assurance step for each lysate, the RNA content of the resulting supernatant was determined using a NanoDrop spectrophotometer (Shimadzu). Supernatants with RNA levels of >250 ng/μL were aliquoted (100 μL), flash frozen in liquid nitrogen, and stored at −80°C.

CBG99 luciferase = CBG99 luciferase (Pyrophorus plagiophthalamus, UniProt Q7M4K1); experiment: Luciferase counterscreen (false-positive counterscreen); type: biochemical, click beetle
Protocol: Hits identified in our primary assay screen were assessed for their potential to interfere with the cbg99 luciferase reporter. For this counterscreen, the master mix containing all the components required for translation (as described above) was incubated for 210 min at 32°C, resulting in the in vitro translation of cbg99 luciferase. The produced luciferase was then incubated with test compounds for 5 min prior to the addition of luciferase reaction buffer. […] Hits from the primary screen were assessed as luciferase inhibitors in 8-point dose-dependent assays ranging from 30 μM to 13.7 nM (1:3 dilutions). Levels of luciferase inhibition were determined relative to the positive control.

[2] = target: human translation (HEK 293F lysate); experiment: Human in vitro translation (HsIVT) assay, HEK 293F lysate, luciferase reporter; type: biochemical; conditions: weighted mean ± SD of two technical replicates, read-out: IC50 value (μM) HsIVT
Description: as §1, §2
FreeStyle human embryonic kidney (HEK) 293F cells (Thermo Fisher Scientific) were grown in 500-mL polycarbonate Erlenmeyer vented flasks (Corning) containing FreeStyle 293 expression medium (Life Technologies) upon reaching a density of approximately 2 × 10^6. Cells were then centrifuged at 1,000 × g for 10 min at 4°C, the medium was discarded, and the resulting pellet was washed once in buffer II containing 20 U of human placental RNase inhibitor (Sigma-Aldrich) and cOmplete EDTA-free inhibitor cocktail (Roche) before being centrifuged at 2,800 × g for 10 min. Clarified HEK cell lysate was obtained in the same way as described for P. falciparum lysate.
PfIVT and HsIVT reactions (5 μL final volume) were performed in 384-well plates (Corning) containing 50% lysate from cells (either P. falciparum or HEK 293F), 10% amino acid solution (final concentration of 400 μM for each amino acid in 60 mM KOH; biotechrabbit), 10% energy recovery solution (final assay concentrations of 40 mM HEPES [pH 7.4], 1.5 mM ATP, 0.15 mM GTP, […] creatine phosphate, and 40 U/mL creatine phosphokinase), 10% helper solution (final assay concentrations of 200 μM cystine, 2% polyethylene glycol 3000 [PEG 3000], 1 mM spermidine, 0.5 mM folinic acid, and 15 μM leupeptin), 10% supplemental salt solution (22.5 mM HEPES [pH 7.4], 50 mM potassium acetate, 1 mM magnesium acetate, 1 mM DTT, 1 U/mL human placental RNase inhibitor, 0.1 mM leupeptin), and 10% cbg99 luciferase mRNA (3,000 ng/mL). A master mix solution containing all components was prepared on ice prior to assays, and 5 μL was dispensed into wells using an automated Integra VIAFLO 16-channel 12.5-μL pipette.

[3] = Pathogen Box hits; weighted mean ± SD of two technical replicates; read-out: IC50 value (μM) Counterscreen
[4] = Pandemic Box hits; weighted mean ± SD of two technical replicates; read-out: IC50 value (μM) Counterscreen

Sequence of CBG99 luciferase (Q7M4K1 entry or part of it): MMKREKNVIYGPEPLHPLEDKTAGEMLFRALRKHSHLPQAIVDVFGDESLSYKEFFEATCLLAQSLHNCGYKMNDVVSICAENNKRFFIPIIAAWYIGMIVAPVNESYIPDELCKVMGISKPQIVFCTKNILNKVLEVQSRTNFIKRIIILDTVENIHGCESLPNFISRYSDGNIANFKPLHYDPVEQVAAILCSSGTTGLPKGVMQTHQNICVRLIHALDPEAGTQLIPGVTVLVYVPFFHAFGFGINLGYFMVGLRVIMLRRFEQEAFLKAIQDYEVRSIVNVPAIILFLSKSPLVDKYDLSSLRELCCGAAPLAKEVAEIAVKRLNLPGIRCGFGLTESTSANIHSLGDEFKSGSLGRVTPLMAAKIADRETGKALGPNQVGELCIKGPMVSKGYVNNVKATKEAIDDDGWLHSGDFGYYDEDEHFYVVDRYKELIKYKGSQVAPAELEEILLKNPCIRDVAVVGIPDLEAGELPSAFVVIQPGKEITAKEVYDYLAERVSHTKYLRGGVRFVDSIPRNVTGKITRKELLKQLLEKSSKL

| SMILES | IC50 ([1]; Pathogen Box hits) | PfIVT inhibition at 30 μM (%) ([1]; Pathogen Box) | IC50 (CBG99 luciferase; [3]) | IC50 ([2]; Pathogen Box hits) | IC50 ([1]; Pandemic Box hits) | PfIVT inhibition at 30 μM (%) ([1]; Pandemic Box) | IC50 (CBG99 luciferase; [4]) | IC50 ([2]; Pandemic Box hits) | activity against PfIVT at 100 μM [1] | IC50 (CBG99 luciferase; read-out: IC50 value (μM) Counterscreen; Pandemic Box hits; weighted mean ± SD of two technical replicates) | IC50 (CBG99 luciferase; read-out: IC50 value (μM) Counterscreen; Pathogen Box hits; weighted mean ± SD of two technical replicates) |
| --- | --- | --- | --- | --- | --- | --- | --- | --- | --- | --- | --- |
| COc1cc(C2=NCCN2)ccc1-c1cn(-c2cccc(C3=NCCN3)c2)nn1 [MMV688407] | 6 ± 0.09 µM | 98.7% | > 30 µM | 5.2 ± 0.02 µM | – | – | – | – | – | – | – |
| Clc1cccc(-c2nnc(-c3ccccc3)o2)c1 [MMV141011] | – | – | – | – | > 30 µM | 51.8% | 10 ± 0.8 µM | > 30 µM | – | – | – |
| NC[C@H]1O[C@H](O[C@H]2[C@H](O)[C@@H](O[C@H]3O[C@H](CO)[C@@H](O)[C@H](N)[C@H]3O)[C@H](N)C[C@@H]2N)[C@H](N)C[C@@H]1O [MMV002459] | – | – | – | – | 29 µM and > 30 µM | 87.3% | > 30 µM | 22 ± 0.3 µM | – | – | – |
| C(=C\c1nc2ccccc2[nH]1)/c1ccc2c(c1)OCO2 [MMV1582495] | – | – | – | – | 0.6 ± 0.07 µM | 89.9% | 1.7 ± 0.08 µM | 3.1 ± 0.04 µM | – | – | – |
| CC(Cc1ccccc1)C(=O)Nc1ccc(Cl)cc1C(=O)O (stereo not drawn) [MMV1579781] | – | – | – | – | 8.1 ± 0.09 µM | 72.4% | 0.5 ± 0.08 µM | > 30 µM | – | – | – |
| C[C@H]1c2cccc(O)c2C(=O)C2=C(O)[C@]3(O)C(=O)C(C(N)=O)=C(O)[C@@H](N(C)C)[C@@H]3[C@@H](O)[C@@H]21 [doxycycline, reference compound] | – | – | – | – | – | – | – | – | not active | – | – |
| CC(=O)Oc1ccccc1C(=O)Nc1ncc([N+](=O)[O-])s1 [MMV688991, nitazoxanide, reference compound] | 0.02 ± 0.008 µM | 97.0% | – | 0.04 ± 0.0003 µM | 0.02 ± 0.007 µM | 98.3% | – | 0.04 ± 0.0003 µM | – | 0.04 ± 0.008 µM | 0.02 ± 0.008 µM |
| CC(C)Nc1ncnc2c1cnn2-c1ccc(Cl)cc1 [MMV108465] | – | – | – | – | 17 ± 0.8 µM | 62.6% | 7.6 ± 0.5 µM | 23 ± 0.11 µM | – | – | – |
| COc1cc(C2=NCCN2)cc2cc(-c3ccc(C4=NCCN4)cc3)oc12 [MMV688362] | 2.8 ± 0.08 µM | 93.5% | > 30 µM | 5.6 ± 0.04 µM | – | – | – | – | – | – | – |
| Cn1cc(NC(=O)c2cc(NC(=O)c3ccc(/C=C/c4cnc5ccccc5c4)cc3)cn2C)cc1C(=O)NCCN1CCOCC1 [MMV1634391] | – | – | – | – | 17 ± 0.6 µM | 52.4% | > 30 µM | 1.1 ± 0.01 µM | – | – | – |
| Cc1ccc(C(=O)Nc2ccc(S(=O)(=O)O)c3cc(S(=O)(=O)O)cc(S(=O)(=O)O)c23)cc1NC(=O)c1cccc(NC(=O)Nc2cccc(C(=O)Nc3cc(C(=O)Nc4ccc(S(=O)(=O)O)c5cc(S(=O)(=O)O)cc(S(=O)(=O)O)c45)ccc3C)c2)c1 [MMV637953] | 3.1 ± 0.07 µM | 78.7% | > 30 µM | > 30 µM | – | – | – | – | – | – | – |
| NC(=O)c1cc(Br)ccc1OCCOc1ccccc1 [MMV687243] | 2.2 ± 0.08 µM | 82.5% | 0.9 ± 0.09 µM | 13 ± 0.2 µM | – | – | – | – | – | – | – |
| CCCCOC(=O)Nc1cc2[nH]c(C3CCCCC3)nc2cc1N1CCCC1 [MMV687730] | 3.9 ± 0.8 µM | 72.4% | > 30 µM | > 30 µM | – | – | – | – | – | – | – |
| COc1ccc(C(=N)N)cc1-c1cn(-c2ccc(C(=N)N)cc2)nn1 [MMV675998] | 13 ± 0.9 µM | 68.9% | > 30 µM | 18 ± 0.13 µM | – | – | – | – | – | – | – |
| COc1ccc(C2=NCCN2)cc1-c1cn(-c2cccc(C3=NCCN3)c2)nn1 [MMV688547] | 1.8 ± 0.07 µM | 96.7% | > 30 µM | 2.7 ± 0.02 µM | – | – | – | – | – | – | – |
| CCOc1ccc(C(=O)NCCc2ccccc2)cc1 [MMV124656] | – | – | – | – | 14 ± 0.9 µM | 72.6% | 3.8 ± 0.08 µM | 17 ± 0.16 µM | – | – | – |
| COc1ccc2nc(C)cc(OCC(=O)Nc3ccccc3OC)c2c1 [MMV687188] | – | 64.9% | > 30 µM | > 30 µM | – | – | – | – | – | – | – |
| CCC[C@@H]1C[C@@H](C(=O)N[C@@H]([C@H]2O[C@H](SC)[C@H](O)[C@@H](O)[C@H]2O)[C@H](C)Cl)N(C)C1 [clindamycin, reference compound] | – | – | – | – | – | – | – | – | not active | – | – |
| O=C(O)c1cc(-c2ccc(Br)cc2)nc2ccc(Cl)cc12 [MMV247764] | – | – | – | – | 14 ± 0.7 µM | 63.2% | 3.2 ± 0.06 µM | 23 ± 0.2 µM | – | – | – |
| N=C(N)Nc1ccc(-c2ccc(-c3ccc(N=C(N)N)c(Cl)c3)o2)cc1Cl [MMV688271] | 18 ± 0.9 µM | 65.7% | > 30 µM | 13 ± 0.16 µM | – | – | – | – | – | – | – |
| Cc1oncc1C(=O)Nc1ccc(C(F)(F)F)cc1 [MMV003291] | – | – | – | – | 2 ± 0.07 µM | 52.9% | 0.5 ± 0.08 µM | > 30 µM | – | – | – |
